The values below come from patent publication US9539336B2, “Sialic acid derivatives” (priority 2012, dated 2017).

Assay [1] deals with T1, CD22 (Siglec-2) (Homo sapiens, UniProt P20273).
T1 sequence (P20273 20-847): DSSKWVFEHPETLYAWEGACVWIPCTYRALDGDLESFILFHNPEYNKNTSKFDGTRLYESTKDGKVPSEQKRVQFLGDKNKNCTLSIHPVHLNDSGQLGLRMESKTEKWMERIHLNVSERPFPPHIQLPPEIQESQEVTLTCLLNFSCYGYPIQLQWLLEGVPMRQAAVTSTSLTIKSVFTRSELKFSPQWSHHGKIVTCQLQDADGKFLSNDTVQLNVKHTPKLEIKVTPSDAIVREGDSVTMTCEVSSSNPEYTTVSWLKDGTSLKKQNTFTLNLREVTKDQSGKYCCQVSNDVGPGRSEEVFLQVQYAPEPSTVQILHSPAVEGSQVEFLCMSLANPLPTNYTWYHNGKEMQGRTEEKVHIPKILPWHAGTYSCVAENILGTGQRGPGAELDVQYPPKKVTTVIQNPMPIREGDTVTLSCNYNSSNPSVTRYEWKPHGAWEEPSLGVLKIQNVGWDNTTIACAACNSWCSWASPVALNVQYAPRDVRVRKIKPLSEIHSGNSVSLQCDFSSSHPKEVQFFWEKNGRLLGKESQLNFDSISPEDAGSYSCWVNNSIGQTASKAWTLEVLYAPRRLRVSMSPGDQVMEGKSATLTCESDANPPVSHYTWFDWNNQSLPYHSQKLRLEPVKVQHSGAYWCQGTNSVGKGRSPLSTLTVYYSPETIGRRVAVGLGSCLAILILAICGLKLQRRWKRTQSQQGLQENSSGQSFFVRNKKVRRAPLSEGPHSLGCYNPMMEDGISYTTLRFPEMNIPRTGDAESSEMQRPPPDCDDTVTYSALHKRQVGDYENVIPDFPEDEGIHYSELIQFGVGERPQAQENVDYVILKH
The settings on record: Table II; affinity to CD22, BPC NeuAc = 1; cited from earlier work.

Assay [2] addresses T1, CD22 (Siglec-2). Put plainly: New assay: displacement of biotin conjugate 35 from sialidase-treated Daudi cells, measured by FACS. In kind it is binding. Set-up: endogenous in cells; host or cells: Daudi (human B cell lymphoma line). The following applies: Table II, IC50 values converted into rIP, BPC NeuAc = 1, 2 μmolar substance 35. As for the experimental part:
In order to be able to determine the affinity of the novel derivatives to CD22, a new assay was developed. For this assay, compound 35 (conjugate of a sialic acid derivative of the formula (I) and biotin) was prepared.
To determine the affinity of the compound of the formula (I), approximately 2×10^8 cells of the human B cell lymphoma line “Daudi” were incubated with sialidase (A. ureafaciens) for 1 h at 37° C. Subsequently, the enzyme was blocked with 1.5 mM 2,3-dehydroNeu5Ac and the cells were washed twice with PBS. Batches of 1-2×10^6 cells were transferred to sample vials and incubated on ice for 15 min with serial concentrations (10-fold dilutions) of the substance to be measured (inhibitor) and then for 20 min with 2 μmolar substance 35. The reaction volume was 50 μl. After washing with PBS, the sample was incubated for 15 min with Streptavidin-PE in the dark, then washed and the amount of substance 35 bound via Streptavadin-PE was measured by FACS. For the determination of 0% displacement of substance 35, cells without inhibitor were measured. For the determination of 100% displacement, cells were measured without substance 35 and without inhibitor. 4 substances and one reference substance were measured per assay. The IC50 values determined in each assay were subsequently converted into rIP values. For this purpose, substance 46 served as reference. […]
A general note: A flow cytometer gives signals particle by particle.

With `COC(=O)CCCCCO[C@@H]1O[C@H](CO)[C@@H](O[C@@H]2O[C@H](CO[C@]3(C(=O)[O-])C[C@H](O)[C@@H](NC(C)=O)[C@H]([C@H](O)[C@H](O)CNC(=O)c4ccc(-c5ccccc5)cc4)O3)[C@H](O)[C@H](O)[C@H]2O)[C@H](O)[C@H]1NC(C)=O.[Na+]` [BPC NeuAc- LN], the “rIP (Literature assay)” value on CD22 (Siglec-2) [1] was 15.9.

For `CO[C@]1(C(=O)[O-])C[C@H](O)[C@@H](NC(C)=O)[C@H]([C@H](O)[C@H](O)CNC(=O)c2ccc(-c3ccccc3)cc2)O1.[Na+]` [BPC NeuAc], on CD22 (Siglec-2) [1], the “rIP (Literature assay)” value is 1. In addition, at CD22 (Siglec-2) [2], the “rIP (New assay)” value was found to be 1.
